Measurements reported in US9546156B2, “N-bicyclic aryl,N'-pyrazolyl urea, thiourea, guanidine cyanoguanidine compounds as TrkA kinase inhibitors” (Array BioPharma Inc., priority 2012, dated 2017).

What was measured:
Test in all cases: Off-target kinase profiling (KinaseProfiler)
Assay type in all cases: biochemical
Details in all cases: 10 μM, ATP near Km
DDR2 = biological target: T1, DDR2 (Homo sapiens, UniProt Q16832)
T1 construct: purchased Millipore, Inc. (KinaseProfiler service)
Outline: (§1)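 One dose only: 10 μM. Kinases assayed in duplicate under near-Km ATP, results given as mean percent-of-control.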

ALK4 = biological target: T2, ALK4 (Homo sapiens, UniProt P36896)
T2 construct: purchased Millipore, Inc. (KinaseProfiler service)
Outline: as §1

MKNK2 = biological target: T3, MKNK2 (Homo sapiens, UniProt Q9HBH9)
T3 construct: purchased Millipore, Inc. (KinaseProfiler service)
Outline: as §1

PKCiota = biological target: T4, PKCiota (Homo sapiens, UniProt P41743)
T4 construct: purchased Millipore, Inc. (KinaseProfiler service)
Outline: as §1

CDK7/cyclinH/MAT1 = biological target: T5, CDK7/cyclinH/MAT1 (Homo sapiens, UniProt P50613)
T5 construct: purchased Millipore, Inc. (KinaseProfiler service)
Outline: as §1

SGK2 = biological target: T6, SGK2 (Homo sapiens, UniProt Q9HBY8)
T6 construct: purchased Millipore, Inc. (KinaseProfiler service)
T6 sequence (Q9HBY8 whole entry): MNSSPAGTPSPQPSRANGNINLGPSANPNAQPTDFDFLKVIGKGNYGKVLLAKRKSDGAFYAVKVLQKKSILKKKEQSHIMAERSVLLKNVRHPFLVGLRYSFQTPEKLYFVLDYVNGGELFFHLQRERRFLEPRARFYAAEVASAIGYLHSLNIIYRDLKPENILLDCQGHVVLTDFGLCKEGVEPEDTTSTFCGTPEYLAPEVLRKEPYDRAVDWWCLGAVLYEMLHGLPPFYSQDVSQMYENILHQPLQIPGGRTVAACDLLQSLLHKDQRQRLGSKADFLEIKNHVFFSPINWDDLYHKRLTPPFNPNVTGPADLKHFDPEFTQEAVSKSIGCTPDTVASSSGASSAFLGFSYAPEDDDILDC
Outline: as §1

Fes = biological target: T7, Fes (Homo sapiens, UniProt P07332)
T7 construct: purchased Millipore, Inc. (KinaseProfiler service)
Outline: as §1

HIPK2 = biological target: T8, HIPK2 (Homo sapiens, UniProt Q9H2X6)
T8 construct: purchased Millipore, Inc. (KinaseProfiler service)
Outline: as §1

c-RAF = biological target: T9, c-RAF (Homo sapiens, UniProt P04049, Y340D/Y341D)
T9 construct: purchased Millipore, Inc. (KinaseProfiler service)
Outline: as §1

Abl-P = biological target: T10, Abl-P (Homo sapiens, UniProt P00519)
T10 construct: purchased Millipore, Inc. (KinaseProfiler service)
Outline: as §1

p70S6K = biological target: T11, p70S6K (Homo sapiens, UniProt P23443)
T11 construct: purchased Millipore, Inc. (KinaseProfiler service)
T11 sequence (P23443 whole entry): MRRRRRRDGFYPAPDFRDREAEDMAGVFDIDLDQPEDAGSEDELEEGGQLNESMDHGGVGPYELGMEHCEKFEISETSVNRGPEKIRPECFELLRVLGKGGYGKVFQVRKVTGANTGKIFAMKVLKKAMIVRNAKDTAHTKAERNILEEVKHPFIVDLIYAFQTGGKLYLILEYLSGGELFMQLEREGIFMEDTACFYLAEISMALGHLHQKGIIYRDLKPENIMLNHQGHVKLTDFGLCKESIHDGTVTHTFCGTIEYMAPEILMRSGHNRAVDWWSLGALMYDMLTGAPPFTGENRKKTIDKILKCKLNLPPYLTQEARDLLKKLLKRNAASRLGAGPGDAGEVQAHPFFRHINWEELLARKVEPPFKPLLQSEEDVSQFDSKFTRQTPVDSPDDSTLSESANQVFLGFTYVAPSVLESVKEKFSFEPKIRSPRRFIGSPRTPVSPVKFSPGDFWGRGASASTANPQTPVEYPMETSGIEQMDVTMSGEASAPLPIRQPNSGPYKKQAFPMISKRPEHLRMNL
Outline: as §1

PRK2 = biological target: T12, PRK2 (Homo sapiens, UniProt Q16513)
T12 construct: purchased Millipore, Inc. (KinaseProfiler service)
Outline: as §1

PDGFRbeta = biological target: T13, PDGFRbeta (Homo sapiens, UniProt P09619)
T13 construct: purchased Millipore, Inc. (KinaseProfiler service)
Outline: as §1

BrSK2 = biological target: T14, BrSK2 (Homo sapiens, UniProt Q8IWQ3)
T14 construct: purchased Millipore, Inc. (KinaseProfiler service)
Outline: as §1

MAP4K2 = biological target: T15, MAP4K2 (Homo sapiens, UniProt Q12851)
T15 construct: purchased Millipore, Inc. (KinaseProfiler service)
Outline: as §1

PAK5 = biological target: T16, PAK5 (Homo sapiens, UniProt Q9P286)
T16 construct: purchased Millipore, Inc. (KinaseProfiler service)
Outline: as §1

EphA3 = biological target: T17, EphA3 (Homo sapiens, UniProt P29320)
T17 construct: purchased Millipore, Inc. (KinaseProfiler service)
Outline: as §1

IRR = biological target: T18, IRR (Homo sapiens, UniProt P14616)
T18 construct: purchased Millipore, Inc. (KinaseProfiler service)
Outline: as §1

AURKA = biological target: T19, AURKA (Homo sapiens, UniProt O14965)
T19 construct: purchased Millipore, Inc. (KinaseProfiler service)
T19 sequence (O14965 whole entry): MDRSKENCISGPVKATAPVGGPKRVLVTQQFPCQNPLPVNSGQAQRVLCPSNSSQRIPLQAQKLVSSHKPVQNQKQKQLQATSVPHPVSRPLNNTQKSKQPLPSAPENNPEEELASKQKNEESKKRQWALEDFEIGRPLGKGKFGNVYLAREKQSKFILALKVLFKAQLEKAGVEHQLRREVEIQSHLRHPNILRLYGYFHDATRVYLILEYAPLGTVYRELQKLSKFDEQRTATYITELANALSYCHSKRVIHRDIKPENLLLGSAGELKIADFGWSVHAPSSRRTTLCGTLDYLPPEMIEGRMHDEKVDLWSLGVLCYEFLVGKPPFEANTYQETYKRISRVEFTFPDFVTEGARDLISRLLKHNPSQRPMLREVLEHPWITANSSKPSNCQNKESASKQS
Outline: as §1

AKT2 = biological target: T20, AKT2 (Homo sapiens, UniProt P31751)
T20 construct: purchased Millipore, Inc. (KinaseProfiler service)
Outline: as §1

PrKX = biological target: T21, PrKX (Homo sapiens, UniProt P51817)
T21 construct: purchased Millipore, Inc. (KinaseProfiler service)
T21 sequence (P51817 whole entry): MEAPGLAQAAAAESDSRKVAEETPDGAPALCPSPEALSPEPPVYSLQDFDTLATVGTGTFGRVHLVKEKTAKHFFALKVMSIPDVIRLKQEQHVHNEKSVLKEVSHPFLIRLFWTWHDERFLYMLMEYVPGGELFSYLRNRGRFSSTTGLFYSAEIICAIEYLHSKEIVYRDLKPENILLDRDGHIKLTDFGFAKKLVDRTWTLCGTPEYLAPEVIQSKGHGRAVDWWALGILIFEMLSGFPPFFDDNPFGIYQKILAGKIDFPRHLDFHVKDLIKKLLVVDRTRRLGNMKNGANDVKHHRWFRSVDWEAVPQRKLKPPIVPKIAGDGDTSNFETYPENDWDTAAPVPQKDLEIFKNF
Outline: as §1

mTOR = biological target: T22, mTOR (Homo sapiens, UniProt P42345)
T22 construct: purchased Millipore, Inc. (KinaseProfiler service)
Outline: as §1

Pim-1 = biological target: T23, Pim-1 (Homo sapiens, UniProt P11309)
T23 construct: purchased Millipore, Inc. (KinaseProfiler service)
Outline: as §1

Abl2 = biological target: T24, Abl2 (Homo sapiens, UniProt P42684)
T24 construct: purchased Millipore, Inc. (KinaseProfiler service)
T24 sequence (P42684 whole entry): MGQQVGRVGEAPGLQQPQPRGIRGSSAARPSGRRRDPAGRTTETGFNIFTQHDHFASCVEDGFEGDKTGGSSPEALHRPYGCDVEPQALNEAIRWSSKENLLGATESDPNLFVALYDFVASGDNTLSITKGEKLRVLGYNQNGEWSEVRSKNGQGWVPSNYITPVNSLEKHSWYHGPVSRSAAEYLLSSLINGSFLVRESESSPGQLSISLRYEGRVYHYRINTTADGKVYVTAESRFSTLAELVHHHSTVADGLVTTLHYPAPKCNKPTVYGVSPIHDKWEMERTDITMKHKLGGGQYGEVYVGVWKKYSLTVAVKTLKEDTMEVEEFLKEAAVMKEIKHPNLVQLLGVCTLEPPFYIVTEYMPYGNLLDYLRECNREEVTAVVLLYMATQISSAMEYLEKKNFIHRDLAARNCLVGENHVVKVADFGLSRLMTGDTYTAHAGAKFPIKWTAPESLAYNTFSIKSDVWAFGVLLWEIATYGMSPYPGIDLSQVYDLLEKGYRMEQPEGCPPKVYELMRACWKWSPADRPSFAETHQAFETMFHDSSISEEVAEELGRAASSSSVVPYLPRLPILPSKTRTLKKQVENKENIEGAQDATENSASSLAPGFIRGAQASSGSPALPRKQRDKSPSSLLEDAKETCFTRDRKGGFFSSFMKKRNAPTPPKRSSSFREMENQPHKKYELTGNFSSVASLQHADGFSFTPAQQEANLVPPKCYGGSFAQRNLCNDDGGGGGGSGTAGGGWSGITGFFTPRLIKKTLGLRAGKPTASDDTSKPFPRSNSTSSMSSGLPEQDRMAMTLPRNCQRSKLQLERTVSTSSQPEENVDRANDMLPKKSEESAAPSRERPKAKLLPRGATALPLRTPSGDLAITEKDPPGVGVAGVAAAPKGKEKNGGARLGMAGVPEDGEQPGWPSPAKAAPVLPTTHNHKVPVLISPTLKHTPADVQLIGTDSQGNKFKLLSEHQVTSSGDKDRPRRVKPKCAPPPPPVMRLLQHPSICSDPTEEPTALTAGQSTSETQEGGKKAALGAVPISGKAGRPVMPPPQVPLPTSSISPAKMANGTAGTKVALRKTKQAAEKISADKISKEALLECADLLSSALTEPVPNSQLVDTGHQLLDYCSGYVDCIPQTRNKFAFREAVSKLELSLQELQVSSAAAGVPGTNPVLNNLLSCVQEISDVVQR
Outline: as §1

CAMK2d = biological target: T25, CAMK2d (Homo sapiens, UniProt Q13557)
T25 construct: purchased Millipore, Inc. (KinaseProfiler service)
T25 sequence (Q13557 whole entry): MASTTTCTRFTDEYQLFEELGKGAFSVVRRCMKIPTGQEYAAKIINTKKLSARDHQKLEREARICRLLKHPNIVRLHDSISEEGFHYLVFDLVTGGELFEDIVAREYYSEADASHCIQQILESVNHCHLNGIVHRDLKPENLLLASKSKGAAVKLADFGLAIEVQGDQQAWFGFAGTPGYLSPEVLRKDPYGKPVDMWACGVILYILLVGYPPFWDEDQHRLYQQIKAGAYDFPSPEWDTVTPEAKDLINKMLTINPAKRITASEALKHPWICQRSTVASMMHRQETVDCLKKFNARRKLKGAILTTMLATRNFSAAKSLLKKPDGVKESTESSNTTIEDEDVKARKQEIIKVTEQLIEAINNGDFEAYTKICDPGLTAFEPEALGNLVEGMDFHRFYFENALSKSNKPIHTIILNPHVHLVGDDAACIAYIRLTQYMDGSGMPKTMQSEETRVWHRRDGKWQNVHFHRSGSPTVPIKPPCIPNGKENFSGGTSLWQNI
Outline: as §1

CK1gamma1 = biological target: T26, CK1gamma1 (Homo sapiens, UniProt Q9HCP0)
T26 construct: purchased Millipore, Inc. (KinaseProfiler service)
T26 sequence (Q9HCP0 whole entry): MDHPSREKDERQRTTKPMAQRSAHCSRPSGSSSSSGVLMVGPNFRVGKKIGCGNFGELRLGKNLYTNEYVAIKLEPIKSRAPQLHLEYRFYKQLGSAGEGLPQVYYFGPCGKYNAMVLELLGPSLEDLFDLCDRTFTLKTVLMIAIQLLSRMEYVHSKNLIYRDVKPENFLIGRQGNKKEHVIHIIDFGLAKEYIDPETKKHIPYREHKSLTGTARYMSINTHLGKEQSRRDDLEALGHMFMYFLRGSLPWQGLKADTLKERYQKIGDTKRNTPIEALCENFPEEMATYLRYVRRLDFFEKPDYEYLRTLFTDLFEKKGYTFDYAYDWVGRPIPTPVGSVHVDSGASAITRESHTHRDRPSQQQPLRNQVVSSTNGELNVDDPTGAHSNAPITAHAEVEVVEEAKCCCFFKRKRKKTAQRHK
Outline: as §1

CAMK1 = biological target: T27, CAMK1 (Homo sapiens, UniProt Q14012)
T27 construct: purchased Millipore, Inc. (KinaseProfiler service)
Outline: as §1

CDK3/cyclinE = biological target: T28, CDK3/cyclinE (Homo sapiens, UniProt Q00526)
T28 construct: purchased Millipore, Inc. (KinaseProfiler service)
Outline: as §1

CAMK1d = biological target: T29, CAMK1d (Homo sapiens, UniProt Q8IU85)
T29 construct: purchased Millipore, Inc. (KinaseProfiler service)
Outline: as §1

CDK2/cyclinE = biological target: T30, CDK2/cyclinE (Homo sapiens, UniProt P24941)
T30 construct: purchased Millipore, Inc. (KinaseProfiler service)
Outline: as §1

EphB3 = biological target: T31, EphB3 (Homo sapiens, UniProt P54753)
T31 construct: purchased Millipore, Inc. (KinaseProfiler service)
Outline: as §1

HIPK3 = biological target: T32, HIPK3 (Homo sapiens, UniProt Q9H422)
T32 construct: purchased Millipore, Inc. (KinaseProfiler service)
Outline: as §1

BLK_m = biological target: T33, BLK_m (Mus musculus, UniProt P16277)
T33 construct: purchased Millipore, Inc. (KinaseProfiler service)
Outline: as §1

DCAMKL2 = biological target: T34, DCAMKL2 (Homo sapiens, UniProt Q8N568)
T34 construct: purchased Millipore, Inc. (KinaseProfiler service)
Outline: as §1

Fms = biological target: T35, Fms (Homo sapiens, UniProt P07333)
T35 construct: purchased Millipore, Inc. (KinaseProfiler service)
Outline: as §1

PKCalpha = biological target: T36, PKCalpha (Homo sapiens, UniProt P17252)
T36 construct: purchased Millipore, Inc. (KinaseProfiler service)
Outline: as §1

MKK4_m = biological target: T37, MKK4_m (Mus musculus, UniProt P47809)
T37 construct: purchased Millipore, Inc. (KinaseProfiler service)
Outline: as §1

Bmx = biological target: T38, Bmx (Homo sapiens, UniProt P51813)
T38 construct: purchased Millipore, Inc. (KinaseProfiler service)
Outline: as §1

SGK1 = biological target: T39, SGK1 (Homo sapiens, UniProt O00141, S422D)
T39 construct: purchased Millipore, Inc. (KinaseProfiler service)
Outline: as §1

JNK3 = biological target: T40, JNK3 (Homo sapiens, UniProt P53779)
T40 construct: purchased Millipore, Inc. (KinaseProfiler service)
Outline: as §1

Fgr = biological target: T41, Fgr (Homo sapiens, UniProt P09769)
T41 construct: purchased Millipore, Inc. (KinaseProfiler service)
T41 sequence (P09769 whole entry): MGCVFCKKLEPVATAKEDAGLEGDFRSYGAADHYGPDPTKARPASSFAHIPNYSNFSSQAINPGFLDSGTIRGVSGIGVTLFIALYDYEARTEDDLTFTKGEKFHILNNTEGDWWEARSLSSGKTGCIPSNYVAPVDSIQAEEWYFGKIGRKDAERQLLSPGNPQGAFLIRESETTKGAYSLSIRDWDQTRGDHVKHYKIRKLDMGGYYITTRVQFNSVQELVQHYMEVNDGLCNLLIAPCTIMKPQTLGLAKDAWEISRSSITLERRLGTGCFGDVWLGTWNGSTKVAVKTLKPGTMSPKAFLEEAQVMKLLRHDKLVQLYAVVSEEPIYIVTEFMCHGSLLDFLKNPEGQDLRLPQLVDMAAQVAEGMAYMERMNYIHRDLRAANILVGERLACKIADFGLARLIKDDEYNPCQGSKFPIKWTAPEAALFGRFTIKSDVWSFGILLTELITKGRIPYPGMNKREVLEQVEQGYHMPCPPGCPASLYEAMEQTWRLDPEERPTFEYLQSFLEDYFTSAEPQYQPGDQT
Outline: as §1

- Avg POC (DDR2): 117.5 POC
- Avg POC (ALK4): 104.5 POC
- Avg POC (MKNK2): 118.5 POC
- Avg POC (PKCiota): 109 POC
- Avg POC (CDK7/cyclinH/MAT1): 121.5 POC
- Avg POC (SGK2): 147.5 POC
- Avg POC (Fes): 117.5 POC
- Avg POC (HIPK2): 97 POC
- Avg POC (c-RAF): 114 POC
- Avg POC (Abl-P): 147 POC
- Avg POC (p70S6K): 218 POC
- Avg POC (PRK2): 142.5 POC
- Avg POC (PDGFRbeta): 136.5 POC
- Avg POC (BrSK2): 143 POC
- Avg POC (MAP4K2): 110.5 POC
- Avg POC (PAK5): 122.5 POC
- Avg POC (EphA3): 139.5 POC
- Avg POC (IRR): 102.5 POC
- Avg POC (AURKA): 128 POC
- Avg POC (AKT2): 217.5 POC
- Avg POC (PrKX): 134 POC
- Avg POC (mTOR): 110 POC
- Avg POC (Pim-1): 124.5 POC
- Avg POC (Abl2): 119.5 POC
- Avg POC (CAMK2d): 106.5 POC
- Avg POC (CK1gamma1): 115.5 POC
- Avg POC (CAMK1): 106 POC
- Avg POC (CDK3/cyclinE): 125 POC
- Avg POC (CAMK1d): 134.5 POC
- Avg POC (CDK2/cyclinE): 143 POC
- Avg POC (EphB3): 102.5 POC
- Avg POC (HIPK3): 109.5 POC
- Avg POC (BLK_m): 106.5 POC
- Avg POC (DCAMKL2): 175 POC
- Avg POC (Fms): 125.5 POC
- Avg POC (PKCalpha): 97 POC
- Avg POC (MKK4_m): 120.5 POC
- Avg POC (Bmx): 125 POC
- Avg POC (SGK1): 169.5 POC
- Avg POC (JNK3): 132 POC
- Avg POC (Fgr): 116 POC
SMILES: COCc1ccc2cccc(NC(=O)Nc3c(C)c(-c4cnn(C)c4)nn3-c3ccccc3)c2c1 [Example 16, 1-(1′,4-dimethyl-1-phenyl-1H,1′H-[3,4′-bipyrazol]-5-yl)-3-(7-(methoxymethyl)naphthalen-1-yl)urea]
